Results: US7528235B2, “Multi-functional antibodies” (The Regents of the Univarsity of California, priority 2003, dated 2009)
Each block holds one molecule with its values, some of them ahead of it.

How the values were obtained:
2D12.5 = test: relative binding curves of 2D12.5 for Y-DOTA isomers and Y-DOTA molecules with different sidechain locations; design: species or system murine; conditions: for relative binding affinity, different sidechain locations: Y-DOTA molecules, FIG. 17; for relative binding affinity, Y-DOTA isomers: coordinated metal Y^3+, FIG. 16
Source text: FIG. 16 is a graphical display showing the relative binding curves of 2D12.5 for Y-DOTA isomers and Y-DTPA. 2D12.5 binds both the (R)- and (S)-isomers of 2-(4-nitrobenzyl)-DOTA when the coordinated metal is Y^3+ (the same behavior is expected for the other rare earths). The (S)-isomer confers Λ-helicity, while the (R)-isomer confers Δ-helicity to the acetate arms. […] Y-DOTA (no-sidearm) exists is solution as a racemic mixture of the coordination isomers.
FIG. 17 is a graphical display showing the relative binding curves of Y-DOTA molecules with different sidechain locations. […] Evaluation of the crystal structure seems to indicate that shorter substitutions at this position may bind with higher affinity. Substitutions at other locations may yield reasonably high affinitites as well. The (5-Amino-2-methoxy-phenyl)-carboxymethyl)-DOTA analyzed in this experiment was racemic, so it is not clear which isomer binds with higher affinity. The low pKa of the carboxymethyl proton makes it difficult to prepare a chirally pure molecule.

antibody 2D12.5 = test: competitive immunoassay (ELISA) of metal-DOTA complexes against immobilized Y-DOTA; assay type: binding, murine; conditions: 37° C., DOTA analog [S]-2-(p-nitrobenzyl)-DOTA
Source text: FIG. 13 is graphical display showing the relative binding of metal-DOTA complexes to antibody 2D12.5. A representative set of competitive binding curves obtained from ELISA experiments described in Example 3 below. Error bars (representing the standard error of the mean) are shown, but are generally smaller than the data points.
Elements plotted in the order Sc (open circle), Lu, Yb, Tm, Er, Ho, Y (open diamond), Dy, Tb, Gd, Eu, Sm, Nd, Pr, Ce, La. ΔΔG values relative to Y-DOTA, set at 0. Error bars represent standard error of the mean.
To determine the metal selectivity of the antibody 2D12.5, a competitive immunoassays was used to measure the binding constants of multiple metal-DOTA complexes relative to Y^3+-DOTA.
We examined the monoclonal antibody 2D12.5, initially developed to bind specifically to Y-DOTA for targeted radiotherapy (see, e.g., Goodwin et al., i Cancer Res. 54: 5937-5946 (1994)), in order to determine the scope of its activity. To assess the metal selectivity of antibody 2D12.5, a competitive immunoassay to measure the binding constants of various metal-DOTA complexes relative to the original Y^3+ complex was developed (FIG. 12). Briefly, 2D12.5 was incubated at 37° C. in the presence of immobilized Y-DOTA and a soluble metal-DOTA competitor. […] Binding was measured by standard methods known to those of skill in the art. […]

[1] = 24 hours after administration of the bound complex; cited from earlier work
Janus-DOTA = conditions: for Janus-DOTA, a bivalent form of DOTA; cited from earlier work
[2] = tested on: (S) nitrobenzyl-DOTA chelates; conditions: for (S) nitrobenzyl-DOTA chelates; cited from earlier work

Molecule: O=C(O)CN1CCN(CC(=O)O)CCN(CC(=O)O)[C@@H](Cc2ccc([N+](=O)[O-])cc2)CN(CC(=O)O)CC1 (single isomer, unassigned) [(S)-isomer]
relative binding affinity, different sidechain locations (2D12.5): clearly stronger
relative binding affinity, Y-DOTA isomers (2D12.5): preferred isomer for binding

Molecule: O=C(O)CN1CCN(CC(=O)O)CCN(CC(=O)O)C(Cc2ccc([N+](=O)[O-])cc2)CN(CC(=O)O)CC1 (single isomer, unassigned; isomer 2) [(R)-isomer, 2-(4-nitrobenzyl)-DOTA]
relative binding affinity, Y-DOTA isomers (2D12.5): affinity decreases less than an order of magnitude

relative binding affinity, different sidechain locations (2D12.5): still sufficiently strong
Molecule: (5-Amino-2-methoxy-phenyl)-carboxymethyl)-DOTA

Molecule: Gd-DOTA
binding strength relative to the original Y^3+ complex (in words) (antibody 2D12.5): bind more tightly than the original Y^3+ complex
binding strength relative to the original Y^3+ complex (in words) (antibody 2D12.5; listed as Gd^3+): strongest binders

B1: 2D12.5: anti-chelate monoclonal antibody that binds metal chelates of DOTA and similar structures (antibody, listed as Mus musculus, V domains shown)
VH: QVKLQESGPGLVQPSQSLSITCTVSGFSLTDYGVHWVRQSPGKGLEWLGVIWSGGGTAYTAAFISRLNIYKDNSKNQVFFEMNSLQANDTAMYYCARRGSYPYNYFDVWGQGTTVTVSS
VL: QAVVTQESALTTSPGETVTLTCRSSTGAVTTSNYANWVQEKPDHLFTGLIGGNNNRPPGVPARFSGSLIGDKAALTIAGTQTEDEAIYFCALWYSNHWVFGGGTRLTVLG
modifications: murine monoclonal antibody 2D12.5 heavy chain variable domain (VH); murine monoclonal antibody 2D12.5 light chain variable domain (VL)
2D12.5 bound to metal chelates present [1]: 74-96%
binding constant Ks (Janus-DOTA): ≈ 10^8
binding constant Ks [2]: ≈ 10^8
